Measurements from ChEMBL document CHEMBL3751683, “Synthesis, colon-targeted studies and pharmacological evaluation of an anti-ulcerative colitis drug 4-Aminosalicylic acid-β-O-glucoside” (Eur J Med Chem, 2016).
Converted amounts (≈) assume the structure as drawn. Values belong to the molecule of their own block, whether it stands above or below them. The source made the active and inactive calls. The rule behind the calls is not given here.

Legend:
[1] = test system: Rattus norvegicus; assay: Antiulcerative colitis activity in TNBS-induced Sprague-Dawley rat colitis model assessed as decrease in severity of inflammation at 300 mg/kg qd for 6 consecutive days measured on 7th day; type: functional, organism-based
[2] = test system: Rattus norvegicus; assay: Antiulcerative colitis activity in TNBS-induced Sprague-Dawley rat colitis model assessed as myeloperoxidase activity at 300 mg/kg, qd for 6 consecutive days by spectrophotometry (reference value: 1.44 +/- 0.041 U/g); type: functional
[3] = test system: Rattus norvegicus; assay: Antiulcerative colitis activity in TNBS-induced Sprague-Dawley rat colitis model assessed as decrease in severity of inflammation at 115 mg/kg qd for 6 consecutive days measured on 7th day; type: functional, organism-based
[4] = test system: Rattus norvegicus; assay: Antiulcerative colitis activity in TNBS-induced Sprague-Dawley rat colitis model assessed as effect on TNBS-induced mucosal abscess at 115 mg/kg qd for 6 consecutive days by hematoxylin and eosin staining based light microscopic analysis; type: functional, organism-based
[5] = test system: Rattus norvegicus; assay: Antiulcerative colitis activity in TNBS-induced Sprague-Dawley rat colitis model assessed as effect on TNBS-induced inflammatory infiltrate at 115 mg/kg qd for 6 consecutive days by hematoxylin and eosin staining based light microscopic analysis; type: functional, organism-based
[6] = Partition coefficient, log P of the compound at pH 7.4 by shake flask method; type: physicochemical; conditions: octanol/water
[7] = Aqueous solubility of the compound; type: physicochemical; conditions: buffer
[8] = test system: Stomach; assay: Drug level in Sprague-Dawley rat stomach homogenate treated with sodium 4-amino-2-((2S,3R,4S,5S,6R)-3,4,5-trihydroxy-6-(hydroxymethyl)tetrahydro-2H- pyran-2-yloxy)benzoate at pH 4.5 by HPLC analysis; type: ADME, tissue-based; conditions: in vivo
[9] = test system: Small intestine; assay: Drug level in Sprague-Dawley rat small intestine homogenate treated with sodium 4-amino-2-((2S,3R,4S,5S,6R)-3,4,5-trihydroxy-6-(hydroxymethyl)tetrahydro-2H- pyran-2-yloxy)benzoate at pH 6.8 by HPLC analysis; type: ADME, tissue-based; conditions: in vivo
[10] = Drug level in Sprague-Dawley rat cecum treated with sodium 4-amino-2-((2S,3R,4S,5S,6R)-3,4,5-trihydroxy-6-(hydroxymethyl)tetrahydro-2H- pyran-2-yloxy)benzoate at pH 7.4 after 12 hrs by HPLC analysis; type: ADME, tissue-based, Caecum; conditions: in vivo, pH 7.4, 12 h
[11] = test system: Colon; assay: Drug level in Sprague-Dawley rat colon treated with sodium 4-amino-2-((2S,3R,4S,5S,6R)-3,4,5-trihydroxy-6-(hydroxymethyl)tetrahydro-2H- pyran-2-yloxy)benzoate at pH 7.4 after 12 hrs by HPLC analysis; type: ADME, tissue-based; conditions: in vivo, pH 7.4, 12 h
[12] = test system: Stomach; assay: Drug level in colitis Sprague-Dawley rat model stomach homogenate treated with sodium 4-amino-2-((2S,3R,4S,5S,6R)-3,4,5-trihydroxy-6-(hydroxymethyl)tetrahydro-2H- pyran-2-yloxy)benzoate at pH 4.5 by HPLC analysis; type: ADME, tissue-based; conditions: in vivo
[13] = test system: Small intestine; assay: Drug level in colitis Sprague-Dawley rat model small intestine homogenate treated with sodium 4-amino-2-((2S,3R,4S,5S,6R)-3,4,5-trihydroxy-6-(hydroxymethyl)tetrahydro-2H- pyran-2-yloxy)benzoate at pH 6.8 by HPLC analysis; type: ADME, tissue-based; conditions: in vivo
[14] = Drug level in colitis Sprague-Dawley rat model cecum treated with sodium 4-amino-2-((2S,3R,4S,5S,6R)-3,4,5-trihydroxy-6-(hydroxymethyl)tetrahydro-2H- pyran-2-yloxy)benzoate at pH 7.4 after 12 hrs by HPLC analysis; type: ADME, tissue-based, Caecum; conditions: in vivo, pH 7.4, 12 h
[15] = test system: Colon; assay: Drug level in colitis Sprague-Dawley rat model colon treated with sodium 4-amino-2-((2S,3R,4S,5S,6R)-3,4,5-trihydroxy-6-(hydroxymethyl)tetrahydro-2H- pyran-2-yloxy)benzoate at pH 7.4 after 12 hrs by HPLC analysis; type: ADME, tissue-based; conditions: in vivo, pH 7.4, 12 h
[16] = test system: Rattus norvegicus; assay: Antiulcerative colitis activity in TNBS-induced Sprague-Dawley rat colitis model assessed as myeloperoxidase activity at 115 mg/kg, qd for 6 consecutive days by spectrophotometry (reference value: 1.44 +/- 0.041 U/g); type: functional
[17] = test system: Rattus norvegicus; assay: Antiulcerative colitis activity in TNBS-induced Sprague-Dawley rat colitis model at 385 mg/kg, qd for 6 consecutive days measured after 12 days; type: functional, organism-based
[18] = test system: Rattus norvegicus; assay: Antiulcerative colitis activity in TNBS-induced Sprague-Dawley rat colitis model drug administered for once daily for 6 consecutive days; type: functional, organism-based
[19] = test system: Rattus norvegicus; assay: Antiulcerative colitis activity in TNBS-induced Sprague-Dawley rat colitis model assessed as decrease in colon/body weight ratio drug administered once daily for 6 consecutive days measured 24 hrs after last drug challenge; type: functional, organism-based
[20] = test system: Rattus norvegicus; assay: Antiulcerative colitis activity in TNBS-induced Sprague-Dawley rat colitis model assessed as decrease in macroscopic injury ratio drug administered once daily for 6 consecutive days measured 24 hrs after last drug challenge; type: functional, organism-based
[21] = test system: Rattus norvegicus; assay: Antiulcerative colitis activity in TNBS-induced Sprague-Dawley rat colitis model assessed as normal morphology of colon at 385 mg/kg qd for 6 consecutive days by hematoxylin and eosin staining based light microscopic analysis; type: functional, organism-based
[22] = test system: Rattus norvegicus; assay: Antiulcerative colitis activity in TNBS-induced Sprague-Dawley rat colitis model assessed as normal morphology of colon at 255 mg/kg qd for 6 consecutive days by hematoxylin and eosin staining based light microscopic analysis; type: functional, organism-based
[23] = test system: Rattus norvegicus; assay: Antiulcerative colitis activity in TNBS-induced Sprague-Dawley rat colitis model assessed as myeloperoxidase activity at 385 mg/kg, qd for 6 consecutive days by spectrophotometry (reference value: 1.44 +/- 0.041 U/g); type: functional
[24] = test system: Rattus norvegicus; assay: Antiulcerative colitis activity in TNBS-induced Sprague-Dawley rat colitis model assessed as effect on TNBS-induced mucosal abscess at 128 mg/kg qd for 6 consecutive days by hematoxylin and eosin staining based light microscopic analysis; type: functional, organism-based
[25] = Stability of compound in isotonic phosphate buffer at pH 1.2 after 12 hrs by HPLC analysis; type: physicochemical; conditions: pH 1.2, 12 h
[26] = Stability of compound in isotonic phosphate buffer at pH 6.8 after 12 hrs by HPLC analysis; type: physicochemical; conditions: pH 6.8, 12 h
[27] = Stability of compound in isotonic phosphate buffer at pH 7.4 after 12 hrs by HPLC analysis; type: physicochemical; conditions: pH 7.4, 12 h
[28] = test system: Rattus norvegicus; assay: Antiulcerative colitis activity in TNBS-induced Sprague-Dawley rat colitis model assessed as decrease in severity of inflammation at 385 to 128 mg/kg qd for 6 consecutive days measured on 7th day; type: functional, organism-based
[29] = test system: Rattus norvegicus; assay: Antiulcerative colitis activity in TNBS-induced Sprague-Dawley rat colitis model assessed as myeloperoxidase activity at 255 mg/kg, qd for 6 consecutive days by spectrophotometry (reference value: 1.44 +/- 0.041 U/g); type: functional

Compound: O=C(O)c1cc(/N=N/c2ccc(S(=O)(=O)Nc3ccccn3)cc2)ccc1O [SULFASALAZINE]
- inhibition [1]: Active
- Activity [2]: 0.58 U/g

Compound: Nc1ccc(O)c(C(=O)O)c1
- inhibition [3]: Active
- Activity [4]: inactive
- Activity [5]: inactive

- logD [6]: 0.901
- solubility [7]: 1.43 mg/mL (≈ 9.34 mM)
- Drug metabolism [8]: metabolite_detected
- Drug metabolism [9]: metabolite_detected
- Drug metabolism [10]: metabolite_detected
- Drug metabolism [11]: metabolite_detected
- Drug metabolism [12]: metabolite_detected
- Drug metabolism [13]: metabolite_detected
- Drug metabolism [14]: metabolite_detected
- Drug metabolism [15]: metabolite_detected
Compound: Nc1ccc(C(=O)O)c(O)c1 [AMINOSALICYLIC ACID]
- inhibition [3]: Active
- Activity [4]: inactive
- Activity [5]: inactive
- Activity [16]: 0.82 U/g

- logD [6]: -0.44
- solubility [7]: 635 mg/mL
- Stability [25]: Stable
- Stability [26]: Stable
- Stability [27]: Stable
Compound: Nc1ccc(C(=O)[O-])c(O[C@@H]2O[C@H](CO)[C@@H](O)[C@H](O)[C@H]2O)c1.[Na+]
- Activity [17]: Active
- Activity [18]: Dose-dependent effect
- inhibition [19]: Dose-dependent effect
- inhibition [20]: Dose-dependent effect
- Activity [21]: Active
- Activity [22]: Active
- Activity [23]: 0.4 U/g
- Activity [24]: inactive
- inhibition [28]: Active
- Activity [29]: 0.51 U/g
